Entries after “also recorded” stand apart in the source; their conditions may differ. Read-outs that look alike come from different tables or passages of the source.
Key:
[1] = target: T1, human NTCP (Homo sapiens, UniProt Q14973); assay type: cell-based
T1 sequence (Q14973 1-349): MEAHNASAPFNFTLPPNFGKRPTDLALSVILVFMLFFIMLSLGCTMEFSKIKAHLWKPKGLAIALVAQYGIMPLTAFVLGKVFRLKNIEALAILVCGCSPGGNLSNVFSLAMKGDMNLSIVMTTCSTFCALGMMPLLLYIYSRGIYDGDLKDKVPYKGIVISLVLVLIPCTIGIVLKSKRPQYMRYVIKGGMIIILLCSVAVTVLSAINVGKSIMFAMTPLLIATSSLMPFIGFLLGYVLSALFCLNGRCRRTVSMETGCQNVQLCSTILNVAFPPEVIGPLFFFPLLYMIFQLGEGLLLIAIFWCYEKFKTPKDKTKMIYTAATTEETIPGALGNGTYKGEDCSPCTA

[2] = target: T1, human NTCP; assay type: cell-based; settings: for NTCP inhibitor or non-inhibitor: inhibitor = Ki less than 300 μM; for potency estimated from few doses: read-out: Estimated Ki for NTCP
[3] = target: T2, human ASBT (Homo sapiens, UniProt Q12908); assay type: cell-based; settings: for potency estimated from few doses: read-out: Estimated Ki for ASBT; for ASBT inhibitor or non-inhibitor: inhibitor = Ki below 300 μM; for taurocholate uptake into ASBT-MDCK cells, percent of control: single drug concentration, same as in NTCP screening (typically 100 μM)
T2 sequence (Q12908 1-348): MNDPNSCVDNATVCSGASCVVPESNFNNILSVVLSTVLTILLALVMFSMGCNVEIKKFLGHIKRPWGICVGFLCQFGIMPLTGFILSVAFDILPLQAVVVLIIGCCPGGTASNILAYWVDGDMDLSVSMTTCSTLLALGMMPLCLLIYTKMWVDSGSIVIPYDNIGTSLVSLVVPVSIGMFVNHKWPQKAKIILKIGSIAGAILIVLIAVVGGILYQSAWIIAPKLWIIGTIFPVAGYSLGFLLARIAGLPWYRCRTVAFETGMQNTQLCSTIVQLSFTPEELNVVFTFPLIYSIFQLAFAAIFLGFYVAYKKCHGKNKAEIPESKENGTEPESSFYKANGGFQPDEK

[4] = Cytotoxicity study; settings: dog, ASBT-MDCK cells
[5] = target: T1, human NTCP; assay: Taurocholate uptake kinetics into NTCP-HEK293 cells; settings: Figure S1

With `COc1cc2nc(N3CCN(C(=O)C4COc5ccccc5O4)CC3)nc(N)c2cc1OC` (stereo not shown) [Doxazosin] the Ki [1] was 35.3 ± 5.4 µM, the “NTCP inhibitor or non-inhibitor” value [2] was “inhibited NTCP” and the potency estimated from few doses [2] was 41.2 ± 7.1 µM. The potency estimated from few doses [3] was 20.9 ± 7.3 µM.
With `CCCCC(=O)N(Cc1ccc(-c2ccccc2-c2nnn[nH]2)cc1)[C@H](C(=O)O)C(C)C` [Valsartan] the viability at 10 min, 100 μM [4] was 77.9%, the “NTCP inhibitor or non-inhibitor” value [2] was “did not inhibit NTCP” and the potency estimated from few doses [2] was greater than 100 µM. It also gave a potency estimated from few doses [3] of 1260 µM.
In the case of `C[C@H](CCC(=O)NCCS(=O)(=O)O)[C@H]1CC[C@H]2[C@@H]3[C@H](O)C[C@@H]4C[C@H](O)CC[C@]4(C)[C@H]3C[C@H](O)[C@]12C` [taurocholate, Taurocholate], the “Kt (taurocholate Michaelis-Menten constant)” value [5] is reported as 22.7(±3.4) μM, the Vmax [5] is reported as 1.80(±0.03) pmol/sec/cm^2 and the “passive permeability Pp” value [5] is reported as 1.27(±0.03)x10^−6 cm/sec.
In the case of `CC(=O)N1CCN(c2ccc(OCC3COC(Cn4ccnc4)(c4ccc(Cl)cc4Cl)O3)cc2)CC1` (stereo not shown) [Ketoconazole], the Ki [1] is reported as 202 µM, the “NTCP inhibitor or non-inhibitor” value [2] is reported as “NTCP inhibitors” and the potency estimated from few doses [2] is reported as 98.8 ± 12 µM. The “ASBT inhibitor or non-inhibitor” value [3] was “ASBT inhibitors”, the potency estimated from few doses [3] was 61.9 ± 27 µM and the “taurocholate uptake into ASBT-MDCK cells, percent of control” value [3] was “below 50%”.
With `CN1CCN(CCCN2c3ccccc3Sc3ccc(Cl)cc32)CC1` [Prochlorperazine] the Ki [1] was 209 ± 27 µM, the “NTCP inhibitor or non-inhibitor” value [2] was “NTCP inhibitors” and the potency estimated from few doses [2] was 280 ± 37 µM. The potency estimated from few doses [3] was 27.4 ± 4.6 µM and the “taurocholate uptake into ASBT-MDCK cells, percent of control” value [3] was “below 50%”.
Work on `CC(C(=O)O)c1cccc(C(=O)c2ccccc2)c1` (stereo not shown) [Ketoprofen] yielded a Ki [1] of 321 ± 57 µM, a potency estimated from few doses [2] of 361 ± 178 µM and a potency estimated from few doses [3] of 480 ± 609 µM.
With `C[C@H]1C[C@@H]2[C@H]([C@@H](O)C[C@@]3(C)[C@H]2CC[C@]3(O)C(=O)CO)[C@@]2(C)C=CC(=O)C=C12` [Methylprednisolone] the Ki [1] was 238 ± 33 µM, the “fold more potent NTCP inhibition than ASBT inhibition” value ([2]; Ki values of Table 4 and 5) was no less than 10 fold and the “NTCP inhibitor or non-inhibitor” value [2] was “NTCP inhibitors; also recorded: inhibited NTCP but not ASBT”. For the same compound, the potency estimated from few doses [2] was 255 ± 53 µM, the “ASBT inhibitor or non-inhibitor” value [3] was “inhibited NTCP but not ASBT” and the potency estimated from few doses [3] was greater than 100 µM.
`CCCN(CCC)S(=O)(=O)c1ccc(C(=O)O)cc1` [Probenecid] showed a Ki [1] of 544 ± 217 µM, a potency estimated from few doses [2] of 435 ± 114 µM and a potency estimated from few doses [3] of 425 ± 155 µM.
For `CCCC1O[C@@H]2C[C@H]3[C@@H]4CCC5=CC(=O)C=C[C@]5(C)[C@H]4[C@@H](O)C[C@]3(C)[C@]2(C(=O)CO)O1` (stereo partly shown) [Budesonide], the Ki [1] was 220 ± 45 µM, the “NTCP inhibitor or non-inhibitor” value [2] was “inhibited NTCP” and the potency estimated from few doses [2] was 264 ± 94 µM. The potency estimated from few doses [3] was 62.6 ± 15 µM and the “taurocholate uptake into ASBT-MDCK cells, percent of control” value [3] was “below 50%”.
With `CCc1nn(CCCN2CCN(c3cccc(Cl)c3)CC2)c(=O)n1CCOc1ccccc1` [Nefazodone] the Ki [1] was 126 ± 20 µM, the “NTCP inhibitor or non-inhibitor” value [2] was “NTCP inhibitors” and the potency estimated from few doses [2] was 100 ± 8 µM. For the same compound, the potency estimated from few doses [3] was 30.8 ± 3.6 µM and the “taurocholate uptake into ASBT-MDCK cells, percent of control” value [3] was “below 50%”.
For `CCOc1nc2cccc(C(=O)O)c2n1Cc1ccc(-c2ccccc2-c2nnn[nH]2)cc1` [Candesartan], the Ki [1] was 233 ± 37 µM, the “NTCP inhibitor or non-inhibitor” value [2] was “inhibited NTCP” and the potency estimated from few doses [2] was 145 ± 44 µM. For the same compound, the potency estimated from few doses [3] was 67.6 ± 30 µM.
For `CC(C)[C@H]1CC[C@H](C(=O)N[C@H](Cc2ccccc2)C(=O)O)CC1` [Nateglinide], the Ki [1] was 200 ± 32 µM, the “NTCP inhibitor or non-inhibitor” value [2] was “inhibited NTCP” and the potency estimated from few doses [2] was 111 ± 7 µM. The potency estimated from few doses [3] was 77 ± 16 µM.
With `COc1ccc2c(c1)c(CC(=O)O)c(C)n2C(=O)c1ccc(Cl)cc1` [Indomethacin] the Ki [1] was 173 ± 24 µM, the “NTCP inhibitor or non-inhibitor” value [2] was “NTCP inhibitors” and the potency estimated from few doses [2] was 141 ± 14 µM. For the same compound, the potency estimated from few doses [3] was 31.3 ± 7.7 µM and the “taurocholate uptake into ASBT-MDCK cells, percent of control” value [3] was “below 50%”.
In the case of `COc1cccc2c1C(=O)c1c(O)c3c(c(O)c1C2=O)C[C@@](O)(C(C)=O)C[C@@H]3O[C@H]1C[C@H](N)[C@H](O)[C@H](C)O1` [Daunorubicin], the potency estimated from few doses [2] is reported as greater than 100 µM and the potency estimated from few doses [3] is reported as greater than 100 µM.
For `C[C@]12C=CC(=O)C=C1CC[C@@H]1[C@@H]2[C@@H](O)C[C@@]2(C)[C@H]1CC[C@]2(O)C(=O)CO` [Prednisolone], the potency estimated from few doses [2] was 335 ± 177 µM and the potency estimated from few doses [3] was 89.2 ± 32 µM.
`CCC1(C)CC(=O)NC1=O` (stereo not shown) [Ethosuximide] gave a potency estimated from few doses [2] of 513 ± 169 µM and a potency estimated from few doses [3] of 313 ± 53 µM.
With `CC(C)OC(=O)C(C)(C)Oc1ccc(C(=O)c2ccc(Cl)cc2)cc1` [Fenofibrate] the Ki [1] was 129 ± 20 µM, the viability at 10 min, 100 μM [4] was 79.2% and the “NTCP inhibitor or non-inhibitor” value [2] was “inhibited NTCP”. The potency estimated from few doses [2] was 211 ± 60 µM, the potency estimated from few doses [3] was 121 ± 33 µM and the “taurocholate uptake into ASBT-MDCK cells, percent of control” value [3] was 64.7%.
For `CCOc1ccc2ccccc2c1C(=O)N[C@@H]1C(=O)N2[C@@H]1SC(C)(C)[C@@H]2C(=O)O` [Nafcillin], the potency estimated from few doses [2] was 2010 ± 5840 µM and the potency estimated from few doses [3] was greater than 100 µM.
For `CC(C)C[C@H](NC(=O)[C@H](Cc1ccccc1)NC(=O)c1cnccn1)B(O)O` [Bortezomib], the potency estimated from few doses [2] was greater than 100 µM and the potency estimated from few doses [3] was 811 ± 243 µM.
With `COc1ccc2cc([C@H](C)C(=O)O)ccc2c1` [Naproxen] the “NTCP inhibitor or non-inhibitor” value [2] was “inhibited NTCP”, the potency estimated from few doses [2] was 217 ± 69 µM and the potency estimated from few doses [3] was 136 ± 13 µM.
With `COC(=O)[C@H]1[C@H]2C[C@@H]3c4[nH]c5cc(OC)ccc5c4CCN3C[C@H]2C[C@@H](OC(=O)c2cc(OC)c(OC)c(OC)c2)[C@@H]1OC` [Reserpine] the “NTCP inhibitor or non-inhibitor” value [2] was “inhibited human NTCP”, the “NTCP inhibitor or non-inhibitor” value ([2]; listed as reserpine) was “inhibited NTCP” and the potency estimated from few doses [2] was 89.1 ± 65 µM. The potency estimated from few doses [3] was 21.6 ± 2.9 µM.
In the case of `COc1ccc([C@@H]2Sc3ccccc3N(CCN(C)C)C(=O)[C@@H]2OC(C)=O)cc1` [Diltiazem], the Ki [1] is reported as 599 ± 212 µM, the potency estimated from few doses [2] is reported as 460 ± 232 µM and the potency estimated from few doses [3] is reported as 237 ± 21 µM.
Work on `NC(N)=Nc1nc(CSCCC(N)=NS(N)(=O)=O)cs1` [Famotidine] yielded a potency estimated from few doses [2] of 387 ± 130 µM and a potency estimated from few doses [3] of 2280 ± 978 µM.

From paper PMC3617406 (Molecular pharmaceutics, 2013)
